Data from US20100048727A1, “PERFLUOROKETONE COMPOUNDS AND USES THEREOF” (priority 2007, published 2010).
Entries after “also recorded” stand apart in the source; their conditions may differ.

What was measured:
[1] = tested on: spinal cord contusion injury (SCI) mice; assay: Spinal cord contusion injury in mice: BMS locomotor recovery and histology; format: in vivo
Description: Spinal cord contusion and drug administration. All surgical procedures were approved by the McGill University Animal Care Committee and followed the guidelines of the Canadian Council on Animal Care. Adult (8-10 weeks old) female BALB/c (Charles River Canada), cPLA2 IVA^−/− and wild type littermates mice, were anesthetized with ketamine:xylazine:acepromazine (50:5:1 mg/kg). After performing a laminectomy at the 11th thoracic vertebrae, the exposed spinal cord was contused using the Infinite Horizons Impactor™ device (Precision Scientific Instrumentation, Lexington, Ky.). Moderate injuries were made using a force of 50 kDynes, and only animals that had tissue displacement ranged between 400-600 μm were used (Ghasemblou et al. (2005). Exp Neurol. 196(1): 9-17).
PLA2 inhibitor treatment. Mice were given daily intraperitoneal injections of 2 mM fluoroketone (iPLA2 inhibitor; FKGK11) in 200 μl (6.85 mg/kg), starting 1 h after contusion and for 14 days. The control group that also had SCI were treated daily with vehicle.
Functional assessment. Locomotor recovery was evaluated in an open-field test using the Basso Mouse Scale (BMS) (Basso D. M. et al., (2006). J Neurotrauma. 23(5): 635-59). The BMS analysis of hindlimb movements and coordination was carried out by two independent assessors and the consensus score taken. The final score is presented as mean±SEM.
Histology. Mice were perfused with 4% paraformaldehyde in 0.1M phosphate buffer (PB) at 1, 3, 7, 14 and 28 days post-lesion. 5 mm length of the spinal cord containing the lesion site was removed, cryoprotected with 30% sucrose in 0.1M PB, and cut in serial sections (16 μm thick). For double immunoflorescence, sections were incubated with antibodies against iPLA2 VIA (Cayman Chemical) combined with antibodies against Mac-1 (for macrophages/microglia, Serotec), GFAP (for astrocytes, Zymed Labs), CC1 (for oligodendrocytes, Calbiochem), NeuN (for neurons, 1:500, Chemicon) and SMI312 (for axons, Covance). Immunfluorescence labeling for 5-hydroxytryptamine (5-HT) (Sigma, Aldreich) was also performed to assess innervation of serotonergic axons caudal to the lesion. In addition, one series of serial sections of the spinal cord were stained with Luxol fast blue (LFB) histochemistry, which stains myelin, and another series stained with cresyl violet histochemistry to quantify neuronal loss.
Quantification of histological results. Histological quantification was performed from spinal cord sections harvested at 28 days post-lesion. Tissue sections were viewed with an Axioskop™ 2 Plus microscope (Zeiss) and images captured using a Qlmaging Retiga™ 1300 camera, and quantification done using BioQuant™ Nova Prime image analysis system (BioQuant Image Analysis Corp.). Tissue and myelin sparing was calculated by delineating the GFAP and LFB stained sections. Neuronal survival was assessed by counting the neuron profiles in the ventral horn of the spinal cord in tissue sections stained with cresyl violet. Assessment of serotonergic innervation was performed by calculating the area occupied by serotoninergic axons in the lateral funiculi and ventral horns of spinal cord sections taken at a distance of 1000 μm caudal to the lesion site.
Statistical analyses (spinal cord injury experiments, Examples 19-20). Data are shown as mean±s.e.m. RT-PCR and Western blot analyses were done using one-way ANOVA with post-hoc Dunnett's test. Statistical analyses of the functional and histological assessments were performed using two-way repeated measures ANOVA with post-hoc Tukey's test for multiple comparisons. Differences were considered significant at p<0.05.

GVIA iPLA2 = target: T1, GVIA iPLA2 (Homo sapiens, UniProt O60733); assay: standard GVIA iPLA2 activity assay (DPPC/Triton X-100 mixed micelles); format: biochemical; settings: 0.091 mole fraction; mean and standard error, n = 3
T1 sequence (O60733 1-806): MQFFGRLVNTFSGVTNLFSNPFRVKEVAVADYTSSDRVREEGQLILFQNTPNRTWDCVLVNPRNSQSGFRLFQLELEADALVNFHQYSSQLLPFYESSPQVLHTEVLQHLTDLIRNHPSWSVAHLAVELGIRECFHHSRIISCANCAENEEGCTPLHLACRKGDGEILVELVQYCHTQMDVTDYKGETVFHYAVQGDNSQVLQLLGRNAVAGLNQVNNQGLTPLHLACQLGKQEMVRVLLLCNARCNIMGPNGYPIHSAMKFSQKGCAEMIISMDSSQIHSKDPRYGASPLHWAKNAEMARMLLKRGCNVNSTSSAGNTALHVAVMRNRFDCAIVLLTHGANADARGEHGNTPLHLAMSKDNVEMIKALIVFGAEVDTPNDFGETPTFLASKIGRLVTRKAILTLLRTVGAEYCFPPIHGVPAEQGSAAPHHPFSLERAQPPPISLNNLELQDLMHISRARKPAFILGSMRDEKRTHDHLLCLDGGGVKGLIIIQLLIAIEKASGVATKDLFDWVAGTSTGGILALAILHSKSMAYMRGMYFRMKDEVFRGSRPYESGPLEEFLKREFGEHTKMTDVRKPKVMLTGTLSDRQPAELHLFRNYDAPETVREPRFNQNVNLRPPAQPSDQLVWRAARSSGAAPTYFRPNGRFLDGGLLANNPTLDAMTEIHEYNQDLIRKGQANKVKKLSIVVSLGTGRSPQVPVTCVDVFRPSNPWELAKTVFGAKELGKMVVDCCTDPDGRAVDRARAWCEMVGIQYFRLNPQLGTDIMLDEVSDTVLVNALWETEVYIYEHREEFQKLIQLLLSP
Description: Inhibition of phospholipase A2 by perfluoroketone compounds. […] (2002) J. Med. Chem. 45: 2891-2893; Kokotos, G. et al. (2004). J. Med. Chem. 47: 3615-3628). The standard GVIA iPLA2 activity assay utilizes DPPC/Triton™ X-100 mixed micelles at a ratio of 1:4 as previously described (Stephens D. et al. (2006). J. Med. Chem., 49: 2821-2828). GV sPLA2 activity was measured in an assay similar to the assays for GIVA cPLA2 and GVIA iPLA2.

[2] = tested on: inflammatory cytokines and chemokines in spinal cord; assay: Mouse Inflammation antibody array on spinal cords of EAE mice; format: in vivo; settings: peak stage (day 18)
Description: Mouse Inflammation antibody array. Spinal cords were removed from vehicle- and FKGK11-treated animals at the peak stage of disease, and were then homogenized and centrifuged at 1000×g. The proteins were extracted and analyzed using the RayBio® Mouse Inflammation Antibody Array 1.1 (Cat. #0106008/AAM-INF-1; RayBiotech Inc.; Norcross, Ga.), which simultaneously detects 40 cytokines and other related proteins. Densitometry analysis was performed to detect differences between the various inflammatory mediators.
To further examine the effects of iPLA2 inhibitor treatment, the expression of 40 inflammatory cytokines and chemokines was assessed using the RayBio® Mouse Inflammation Antibody Array 1.1 (RayBiotech Inc., Norcross, Ga, Cat. #0106008/AAM-INF-1). The analysis was carried out on spinal cords taken from the peak stage of clinical disability (day 18), from mice treated with either a vehicle control, or the iPLA2-specific inhibitor FKGK11.

O=C(CCCCc1ccccc1)C(F)(F)C(F)(F)F [FKGK11, 1,1,1,2,2-Pentafluoro-7-phenyl-3-heptanone]
main BMS scores (locomotor recovery) ([1]; 6.85 mg/kg i.p. daily for 14 days from 1 h after contusion, vs vehicle): did not reach statistical significance; also recorded: No significant differences
BMS subscores (fine locomotor coordination and control) ([1]; 6.85 mg/kg i.p. daily for 14 days, 28 days after SCI, vs vehicle): significant improvement; also recorded: significantly better BMS subscores
sparing of serotonergic fibers in the lateral funiculi ([1]; 1000 μm caudal to the epicenter, 28 days after SCI): significantly greater sparing of serotonergic fibers
increase in serotonergic (5-HT) fibers in the lateral white matter ([1]; 1000 μm caudal to the epicenter, 28 days after SCI, compared to vehicle-treated SCI controls): ~40%
neuronal survival in the ventral horn ([1]; 28 days after SCI, vs vehicle): little if any effect; also recorded: No significant differences
tissue sparing ([1]; epicenter and adjacent areas, 28 days after SCI, vs vehicle): significantly greater tissue sparing; also recorded: greater amount of tissue sparing
myelin sparing (Luxol fast blue) ([1]; regions near the epicenter, 28 days after SCI, vs vehicle): significant enhancement of myelin sparing; also recorded: greater sparing of myelin
Average percent inhibition GVIA iPLA2 (GVIA iPLA2): 98 ± 16%
IL-10 expression [2]: increase
number of chemokine proteins with marked reduction ([2]; of 15 chemokines increased in vehicle-treated control): 11
number of pro-inflammatory cytokines with reduced expression ([2]; of 17 cytokines increased in vehicle-treated control): 13
